{"source": "ChEMBL document CHEMBL1201862", "about": "“PubChem BioAssay data set” (2004)", "test_in_all_cases": "inhibition of tumour cell growth, NCI panel, 48 h", "key": {"[1]": {"system": "786-0"}, "[2]": {"system": "A498"}, "[3]": {"system": "A549"}, "[4]": {"system": "ACHN"}, "[5]": {"system": "CAKI-1"}, "[6]": {"system": "CCRF-CEM"}, "[7]": {"system": "COLO 205"}, "[8]": {"system": "DLD-1"}, "[9]": {"system": "DMS-114"}, "[10]": {"system": "DMS-273"}, "[11]": {"system": "EKVX"}, "[12]": {"system": "HCC 2998"}, "[13]": {"system": "HCT-116"}, "[14]": {"system": "HCT-15"}, "[15]": {"system": "HL-60"}, "[16]": {"system": "HOP-18"}, "[17]": {"system": "HOP-62"}, "[18]": {"system": "HOP-92"}, "[19]": {"system": "HT-29"}, "[20]": {"system": "IGROV-1"}, "[21]": {"system": "K562"}, "[22]": {"system": "KM-20L2"}, "[23]": {"system": "KM12"}, "[24]": {"system": "LOX IMVI"}, "[25]": {"system": "LXFL 529"}, "[26]": {"system": "M14"}, "[27]": {"system": "M19-MEL"}, "[28]": {"system": "MOLT-4"}, "[29]": {"system": "Malme-3M"}, "[30]": {"system": "NCI-H226"}, "[31]": {"system": "NCI-H23"}, "[32]": {"system": "NCI-H460"}, "[33]": {"system": "OVCAR-3"}, "[34]": {"system": "OVCAR-4"}, "[35]": {"system": "OVCAR-5"}, "[36]": {"system": "OVCAR-8"}, "[37]": {"system": "RXF 393"}, "[38]": {"system": "RXF 631"}, "[39]": {"system": "SF-268"}, "[40]": {"system": "SF-295"}, "[41]": {"system": "SF-539"}, "[42]": {"system": "SK-MEL-28"}, "[43]": {"system": "SK-MEL-5"}, "[44]": {"system": "SN12C"}, "[45]": {"system": "SNB-19"}, "[46]": {"system": "SNB-75"}, "[47]": {"system": "SNB-78"}, "[48]": {"system": "SR"}, "[49]": {"system": "SW-620"}, "[50]": {"system": "TK-10"}, "[51]": {"system": "U-251"}, "[52]": {"system": "UACC-257"}, "[53]": {"system": "UACC-62"}, "[54]": {"system": "UO-31"}, "[55]": {"system": "XF498"}}, "note": "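In this assay, cells in 96-well plates receive the compound at five concentrations for 48 hours. Endpoints are linearly interpolated between the surrounding concentrations. Here, GI50 denotes the concentration required for 50% inhibition of growth.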 Active and inactive are the calls of the source. Rule as the data show it: active = GI50 up to about 1.1 µM and inactive = higher."}
{"compound": "CC1=C(C(=O)NCc2ccccc2)C(c2ccccc2[N+](=O)[O-])C(C(=O)NCc2ccccc2)=C(C)N1", "values": [{"measurement": "GI50", "setting": "[1]", "value": "12.8 µM (inactive)"}, {"measurement": "GI50", "setting": "[2]", "value": "18.2 µM (inactive)"}, {"measurement": "GI50", "setting": "[3]", "value": "25.9 µM (inactive)"}, {"measurement": "GI50", "setting": "[4]", "value": "13.9 µM (inactive)"}, {"measurement": "GI50", "setting": "[5]", "value": "21.3 µM (inactive)"}, {"measurement": "GI50", "setting": "[6]", "value": "6.89 µM (inactive)"}, {"measurement": "GI50", "setting": "[7]", "value": "18.7 µM (inactive)"}, {"measurement": "GI50", "setting": "[8]", "value": "6.73 µM (inactive)"}, {"measurement": "GI50", "setting": "[9]", "value": "12 µM (inactive)"}, {"measurement": "GI50", "setting": "[10]", "value": "10.6 µM (inactive)"}, {"measurement": "GI50", "setting": "[11]", "value": "16.4 µM (inactive)"}, {"measurement": "GI50", "setting": "[12]", "value": "17.3 µM (inactive)"}, {"measurement": "GI50", "setting": "[13]", "value": "6.75 µM (inactive)"}, {"measurement": "GI50", "setting": "[14]", "value": 7.8, "unit": "µM"}, {"measurement": "GI50", "setting": "[15]", "value": "3.31 µM (inactive)"}, {"measurement": "GI50", "setting": "[16]", "value": "20.3 µM (inactive)"}, {"measurement": "GI50", "setting": "[17]", "value": "20.6 µM (inactive)"}, {"measurement": "GI50", "setting": "[18]", "value": "20.8 µM (inactive)"}, {"measurement": "GI50", "setting": "[19]", "value": "12.8 µM (inactive)"}, {"measurement": "GI50", "setting": "[20]", "value": "18.4 µM (inactive)"}, {"measurement": "GI50", "setting": "[21]", "value": "5.08 µM (inactive)"}, {"measurement": "GI50", "setting": "[22]", "value": "16.5 µM (inactive)"}, {"measurement": "GI50", "setting": "[23]", "value": "10.4 µM (inactive)"}, {"measurement": "GI50", "setting": "[24]", "value": "7.24 µM (inactive)"}, {"measurement": "GI50", "setting": "[25]", "value": "10.7 µM (inactive)"}, {"measurement": "GI50", "setting": "[26]", "value": "11.7 µM (inactive)"}, {"measurement": "GI50", "setting": "[27]", "value": "11.4 µM (inactive)"}, {"measurement": "GI50", "setting": "[28]", "value": "8.93 µM (inactive)"}, {"measurement": "GI50", "setting": "[29]", "value": "13.7 µM (inactive)"}, {"measurement": "GI50", "setting": "[30]", "value": "16.2 µM (inactive)"}, {"measurement": "GI50", "setting": "[31]", "value": "12.3 µM (inactive)"}, {"measurement": "GI50", "setting": "[32]", "value": "14 µM (inactive)"}, {"measurement": "GI50", "setting": "[33]", "value": "5.31 µM (inactive)"}, {"measurement": "GI50", "setting": "[34]", "value": "10.2 µM (inactive)"}, {"measurement": "GI50", "setting": "[35]", "value": "22.1 µM (inactive)"}, {"measurement": "GI50", "setting": "[36]", "value": "13.1 µM (inactive)"}, {"measurement": "GI50", "setting": "[37]", "value": "10.6 µM (inactive)"}, {"measurement": "GI50", "setting": "[38]", "value": "15.4 µM (inactive)"}, {"measurement": "GI50", "setting": "[39]", "value": "9.18 µM (inactive)"}, {"measurement": "GI50", "setting": "[40]", "value": "12.4 µM (inactive)"}, {"measurement": "GI50", "setting": "[41]", "value": "8.09 µM (inactive)"}, {"measurement": "GI50", "setting": "[42]", "value": "13.1 µM (inactive)"}, {"measurement": "GI50", "setting": "[43]", "value": "13.1 µM (inactive)"}, {"measurement": "GI50", "setting": "[44]", "value": "12 µM (inactive)"}, {"measurement": "GI50", "setting": "[45]", "value": "14.2 µM (inactive)"}, {"measurement": "GI50", "setting": "[46]", "value": "13.6 µM (inactive)"}, {"measurement": "GI50", "setting": "[47]", "value": "11.8 µM (inactive)"}, {"measurement": "GI50", "setting": "[48]", "value": "5.13 µM (inactive)"}, {"measurement": "GI50", "setting": "[49]", "value": "14.5 µM (inactive)"}, {"measurement": "GI50", "setting": "[50]", "value": "17.6 µM (inactive)"}, {"measurement": "GI50", "setting": "[51]", "value": "10.9 µM (inactive)"}, {"measurement": "GI50", "setting": "[52]", "value": "13.3 µM (inactive)"}, {"measurement": "GI50", "setting": "[53]", "value": "8.49 µM (inactive)"}, {"measurement": "GI50", "setting": "[54]", "value": "13.9 µM (inactive)"}, {"measurement": "GI50", "setting": "[55]", "value": "18 µM (inactive)"}]}
